According to patent publication US20150292026A1, “METHYLATION MARKERS PREDICTIVE FOR DRUG RESPONSE” (MDxHEALTH SA, priority 2012, published 2015):
Like-named read-outs stand apart in the source and are kept apart here.

What was measured:
[1] = test system: HCT116 cells; assay: Re-expression of DCR1 (qRT-PCR) in HCT116 after inhibition of DNA methyltransferases; assay type: cell-based, Human; settings: HCT116 (65% methylated for DCR1), 5000 nM for 3 days, p=0.005
Method: To investigate re-expression of DCR1 after inhibition of DNA metyltransferases, HCT116 cells were treated with 5000 nM 5-aza-2′-deoxycytidine for 3 days (DAC, Sigma Chemical Co., St. Louis. Mo., USA).
Total RNA was isolated using TriZoI reagent (Invitrogen, Breda, The Netherlands), and subjected to purification using RNeasy Mini Kit (Qiagen). After DNAse treatment (RQI DNAse, Promega, Leiden, The Netherlands). cDNA was made with the Iscript cDNA Synthesis Kit (BioRad, Veenendaal, The Netherlands). Quantitative RT-PCR was done using TaqMan® Gene Expression Assays from Applied Biosystems directed to DCR1 (Hs00182570_m1) and B2M (Hs00984230_m1). Relative expression levels were determined by calculating the Ct-ratio (Ct ratio=2̂−(Ct DCR1−Ct B2M)).
Student's T-test was used for comparison of DCR1 expression levels before and after DAC and TSA treatment of HCT116.

[2] = test system: patients with metastatic CRC; settings: first-line therapy, discovery set; for HR (methylated vs unmethylated): PFS
[3] = test system: patients with metastatic CRC; assay: CAIRO arm A: response to single agent irinotecan in second line by DCR1 methylation; assay type: in vivo, human; settings: 65 patients from arm A, data not shown
[4] = test system: patients with CRC (CAIROII); settings: CAIRO II patients, estimate from literature; cited from earlier work

Molecule: Nc1ncn([C@H]2C[C@H](O)[C@@H](CO)O2)c(=O)n1 [5-aza-2′-deoxycytidine]
- DCR1 expression (qRT-PCR) after treatment [1]: significant increased DCR1 expression

Molecule: CCCCCOC(=O)Nc1nc(=O)n([C@@H]2O[C@H](C)[C@@H](O)[C@H]2O)cc1F [Capecitabine]
- HR (methylated vs unmethylated) ([2]; BK methylation): 1.1
- HR (methylated vs unmethylated) ([2]; CAT methylation): 0.9
- HR (methylated vs unmethylated) ([2]; CCND2 methylation): 1.3
- HR (methylated vs unmethylated) ([2]; CDK5 methylation): 0.7
- HR (methylated vs unmethylated) ([2]; DAPK1 methylation): 1.0
- HR (methylated vs unmethylated) ([2]; DCR1 methylation): 1.4
- HR (methylated vs unmethylated) ([2]; EEF1A2 (1 assay methylation)): 1.2
- HR (methylated vs unmethylated) ([2]; EEF1A2 (2 assay methylation)): 1.3
- HR (methylated vs unmethylated) ([2]; HOXA9 methylation): 0.8
- HR (methylated vs unmethylated) ([2]; IRAK1 methylation): 1.6
- HR (methylated vs unmethylated) ([2]; LIG4 methylation): 1.2
- HR (methylated vs unmethylated) ([2]; NUDT1 methylation): 1.5
- HR (methylated vs unmethylated) ([2]; PAX3 (1) assay methylation): 1.2
- HR (methylated vs unmethylated) ([2]; PAX3 (2) assay methylation): 1.3
- HR (methylated vs unmethylated) ([2]; PRKCB1 methylation): 1.1
- HR (methylated vs unmethylated) ([2]; PROK2 methylation): 0.8
- HR (methylated vs unmethylated) ([2]; PROP1 methylation): 2.0
- HR (methylated vs unmethylated) ([2]; PTGS2 methylation): 1.1
- HR (methylated vs unmethylated) ([2]; RASSF1 methylation): 1.2
- HR (methylated vs unmethylated) ([2]; RBBP8 methylation): 0.9
- HR (methylated vs unmethylated) ([2]; RHOB methylation): 0.7
- HR (methylated vs unmethylated) ([2]; SPO11 methylation): 1.4
- HR (methylated vs unmethylated) ([2]; TBX5 methylation): 2.3
- HR (methylated vs unmethylated) ([2]; TIPARP methylation): 0.9
- Median PFS ([2]; BK methylated (M) tumours): 149 days
- Median PFS ([2]; BK unmethylated (U) tumours): 188 days
- Median PFS ([2]; CAT methylated (M) tumours): 116 days
- Median PFS ([2]; CAT unmethylated (U) tumours): 190 days
- Median PFS ([2]; CCND2 methylated (M) tumours): 202 days
- Median PFS ([2]; CCND2 unmethylated (U) tumours): 156 days
- Median PFS ([2]; CDK5 methylated (M) tumours): 125 days
- Median PFS ([2]; CDK5 unmethylated (U) tumours): 191 days
- Median PFS ([2]; DAPK1 methylated (M) tumours): 144 days
- Median PFS ([2]; DAPK1 unmethylated (U) tumours): 188 days
- Median PFS ([2]; DCR1 methylated (M) tumours): 184 days
- Median PFS ([2]; DCR1 unmethylated (U) tumours): 178 days
- Median PFS ([2]; EEF1A2 (1 assay methylated (M) tumours)): 202 days
- Median PFS ([2]; EEF1A2 (1 assay unmethylated (U) tumours)): 168 days
- Median PFS ([2]; EEF1A2 (2 assay methylated (M) tumours)): 246 days
- Median PFS ([2]; EEF1A2 (2 assay unmethylated (U) tumours)): 177 days
- Median PFS ([2]; HOXA9 methylated (M) tumours): 168 days
- Median PFS ([2]; HOXA9 unmethylated (U) tumours): 191 days
- Median PFS ([2]; IRAK1 methylated (M) tumours): 216 days
- Median PFS ([2]; IRAK1 unmethylated (U) tumours): 130 days
- Median PFS ([2]; LIG4 methylated (M) tumours): 173 days
- Median PFS ([2]; LIG4 unmethylated (U) tumours): 190 days
- Median PFS ([2]; NUDT1 methylated (M) tumours): 187 days
- Median PFS ([2]; NUDT1 unmethylated (U) tumours): 99 days
- Median PFS ([2]; PAX3 (1) assay methylated (M) tumours): 189 days
- Median PFS ([2]; PAX3 (1) assay unmethylated (U) tumours): 126 days
- Median PFS ([2]; PAX3 (2) assay methylated (M) tumours): 187 days
- Median PFS ([2]; PAX3 (2) assay unmethylated (U) tumours): 127 days
- Median PFS ([2]; PRKCB1 methylated (M) tumours): 192 days
- Median PFS ([2]; PRKCB1 unmethylated (U) tumours): 168 days
- Median PFS ([2]; PROK2 methylated (M) tumours): 182 days
- Median PFS ([2]; PROK2 unmethylated (U) tumours): 179 days
- Median PFS ([2]; PROP1 methylated (M) tumours): 188 days
- Median PFS ([2]; PROP1 unmethylated (U) tumours): 99 days
- Median PFS ([2]; PTGS2 methylated (M) tumours): 202 days
- Median PFS ([2]; PTGS2 unmethylated (U) tumours): 168 days
- Median PFS ([2]; RASSF1 methylated (M) tumours): 209 days
- Median PFS ([2]; RASSF1 unmethylated (U) tumours): 164 days
- Median PFS ([2]; RBBP8 methylated (M) tumours): 191 days
- Median PFS ([2]; RBBP8 unmethylated (U) tumours): 177 days
- Median PFS ([2]; RHOB methylated (M) tumours): 112 days
- Median PFS ([2]; RHOB unmethylated (U) tumours): 188 days
- Median PFS ([2]; SPO11 methylated (M) tumours): 177 days
- Median PFS ([2]; SPO11 unmethylated (U) tumours): 190 days
- Median PFS ([2]; TBX5 methylated (M) tumours): 188 days
- Median PFS ([2]; TBX5 unmethylated (U) tumours): 65 days
- Median PFS ([2]; TIPARP methylated (M) tumours): 177 days
- Median PFS ([2]; TIPARP unmethylated (U) tumours): 187 days

Molecule: CCc1c2c(nc3ccc(OC(=O)N4CCC(N5CCCCC5)CC4)cc13)-c1cc3c(c(=O)n1C2)COC(=O)[C@]3(O)CC [irinotecan, Irinotecan]
- association of DCR1 methylation with response to single agent second-line therapy [3]: a similar trend was observed, although not statistically significant

Molecule: bevacuzimab: targeted therapy directed against VEGF
- survival benefit from bevacizumab [4]: about two
